In ChEMBL document CHEMBL3351720, “Design, synthesis and evaluation of benzoisothiazolones as selective inhibitors of PHOSPHO1” (Bioorg Med Chem Lett, 2014):

Tests used:
Phosphomannomutase 2 = molecular target: T1, Phosphomannomutase 2 (Homo sapiens, UniProt O15305); test: Inhibition of PMM2 (unknown origin)
T1 sequence (O15305 whole entry): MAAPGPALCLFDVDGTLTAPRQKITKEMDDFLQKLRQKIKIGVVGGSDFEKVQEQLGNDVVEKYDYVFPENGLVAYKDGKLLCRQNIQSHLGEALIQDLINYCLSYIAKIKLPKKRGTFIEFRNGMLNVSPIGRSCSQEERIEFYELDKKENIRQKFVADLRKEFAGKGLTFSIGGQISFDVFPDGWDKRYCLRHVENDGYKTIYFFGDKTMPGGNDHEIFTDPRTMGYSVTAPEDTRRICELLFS

[1] = molecular target: T2, Mannose-6-phosphate isomerase (Homo sapiens, UniProt P34949); test: Inhibition of phosphomannose isomerase (unknown origin)
T2 sequence (P34949 whole entry): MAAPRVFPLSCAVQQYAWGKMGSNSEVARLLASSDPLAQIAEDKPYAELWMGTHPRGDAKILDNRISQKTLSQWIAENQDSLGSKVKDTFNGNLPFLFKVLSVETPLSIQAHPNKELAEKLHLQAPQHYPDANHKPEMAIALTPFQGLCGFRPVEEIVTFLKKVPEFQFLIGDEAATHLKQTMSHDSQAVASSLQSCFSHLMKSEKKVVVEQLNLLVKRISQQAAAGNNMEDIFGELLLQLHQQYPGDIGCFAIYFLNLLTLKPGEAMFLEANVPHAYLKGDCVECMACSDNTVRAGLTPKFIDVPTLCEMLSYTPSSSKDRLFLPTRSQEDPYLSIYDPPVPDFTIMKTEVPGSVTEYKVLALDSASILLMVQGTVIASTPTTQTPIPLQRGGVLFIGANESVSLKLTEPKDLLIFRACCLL

[2] = molecular target: T3, Phosphoethanolamine/phosphocholine phosphatase (Homo sapiens, UniProt Q8TCT1); test: Inhibition of PHOSPHO1 phosphoethanolamine activity (unknown origin) assessed as amount of inorganic phosphate release after 30 mins
T3 sequence (Q8TCT1 whole entry): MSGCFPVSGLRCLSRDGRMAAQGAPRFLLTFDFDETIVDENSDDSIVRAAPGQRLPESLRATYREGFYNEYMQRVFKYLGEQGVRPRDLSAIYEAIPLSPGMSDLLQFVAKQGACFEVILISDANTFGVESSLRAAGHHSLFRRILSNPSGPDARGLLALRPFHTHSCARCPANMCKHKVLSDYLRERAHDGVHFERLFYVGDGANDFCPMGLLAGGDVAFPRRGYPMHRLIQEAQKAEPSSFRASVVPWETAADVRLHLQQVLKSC

Cc1cccc(-n2sc3ccccc3c2=O)c1
IC50 (Phosphomannomutase 2): > 20 µM

Cc1cccc(-n2sc3cc(F)ccc3c2=O)c1C
IC50 [1]: 9.9 µM | IC50 (Phosphomannomutase 2): > 20 µM | IC50 [2]: 4.7 µM

O=c1c2ccc(F)cc2sn1-c1ccccc1
IC50 [1]: 1.3 µM | IC50 (Phosphomannomutase 2): > 50 µM | IC50 [2]: 0.79 µM

COc1ccc(-n2sc3cc(F)ccc3c2=O)cc1
IC50 (Phosphomannomutase 2): > 10 µM | IC50 [2]: 6.7 µM

O=c1c2ccccc2sn1-c1ccc(Cl)c(S(=O)(=O)N2CCOCC2)c1
IC50 (Phosphomannomutase 2): 63 µM

CCN(CC)S(=O)(=O)c1cccc(-n2sc3ccccc3c2=O)c1
IC50 [1]: > 50 µM | IC50 (Phosphomannomutase 2): > 100 µM

CN(C)c1ccc(-n2sc3ccccc3c2=O)cc1
IC50 [1]: 8.4 µM | IC50 (Phosphomannomutase 2): > 30 µM

CCOC(=O)c1ccc(-n2sc3ccccc3c2=O)cc1
IC50 [1]: 23 µM | IC50 (Phosphomannomutase 2): > 50 µM

Cc1ccc(C)c(-n2sc3cc(F)ccc3c2=O)c1
IC50 [2]: 3.3 µM

O=c1c2ccccc2sn1-c1ccc(F)c(Cl)c1
IC50 [1]: > 50 µM | IC50 (Phosphomannomutase 2): > 100 µM

O=c1c2ccc(F)cc2sn1-c1ccc(F)cc1
IC50 [1]: 3.6 µM | IC50 (Phosphomannomutase 2): > 50 µM | IC50 [2]: > 10 µM
